In publication PMC12073238, “The α-Glucosidase Inhibition Activities of Phaeochromycins D and E Isolated from Marine Streptomyces sp. FJ0218” (Molecules, 2025):
Like-named read-outs stand apart in the source and are kept apart here. Blank lines part the entries; values can stand above or below the molecule they belong to.

Legend:
α-glucosidase [1] = target: T1, α-glucosidase (Saccharomyces cerevisiae, UniProt P53341); conditions: cited from earlier work
HeLa cell line = test system: HeLa cell line; design: method as in PMID 19190740; conditions: at a concentration of 10 μg/mL; cited from earlier work
MAPKAP kinase-2 = target: MAPKAP kinase-2; design: method as in PMID 16124774; conditions: weak inhibitors; cited from earlier work
[2] = test system: small intestinal α-glucosidase; design: method as in PMID 26840363; conditions: small intestinal α-glucosidase in rats; cited from earlier work
α-glucosidase [3] = target: T1, α-glucosidase; assay: inhibition kinetics of α-glucosidase, Lineweaver–Burk double-reciprocal plots; type: biochemical; conditions: compound 1 at 0.5 and 0.7 mM, compound 2 at 0.2 and 0.3 mM; for inhibition type: ρNPG 0.25-4.0 mM
Procedure: Louis, MO, USA) in the same PBS buffer. […] After being thoroughly mixed, the mixture was placed in a 37 °C constant temperature incubator for 15 min. […] Then, 80 μL of 200 mM Na2CO3 solution was added to complete the reaction. Finally, the absorbance value (OD) was measured at 405 nm using a microplate reader. The experiment used 20 μL of PBS as the background control instead of 20 μL of α-glucosidase solution. Additionally, 20 μL of PBS was used as the negative control instead of the test sample. […] Each treatment was repeated three times. The α-glucosidase inhibitory activity was calculated using the following formula: Inhibitory rate (%) = [(An - As)/An] × 100, where As represents the absorbance of the sample reaction solution, and An represents the absorbance of the negative control. The IC50 values, the inhibitor concentration in mM that inhibits 50% of the enzyme activity, were determined graphically by interpolating from the inhibitions determined with different concentrations of compounds, through statistical analysis using SPSS 18.0. […] For compound 1, concentrations of 0.5 mM and 0.7 mM were used, while for compound 2, concentrations of 0.2 mM and 0.3 mM were selected. […] The enzyme reaction was performed using the conditions described above. Inhibition types were analyzed using double-reciprocal plots generated with Origin 2021.

T1 sequence (P53341 whole entry): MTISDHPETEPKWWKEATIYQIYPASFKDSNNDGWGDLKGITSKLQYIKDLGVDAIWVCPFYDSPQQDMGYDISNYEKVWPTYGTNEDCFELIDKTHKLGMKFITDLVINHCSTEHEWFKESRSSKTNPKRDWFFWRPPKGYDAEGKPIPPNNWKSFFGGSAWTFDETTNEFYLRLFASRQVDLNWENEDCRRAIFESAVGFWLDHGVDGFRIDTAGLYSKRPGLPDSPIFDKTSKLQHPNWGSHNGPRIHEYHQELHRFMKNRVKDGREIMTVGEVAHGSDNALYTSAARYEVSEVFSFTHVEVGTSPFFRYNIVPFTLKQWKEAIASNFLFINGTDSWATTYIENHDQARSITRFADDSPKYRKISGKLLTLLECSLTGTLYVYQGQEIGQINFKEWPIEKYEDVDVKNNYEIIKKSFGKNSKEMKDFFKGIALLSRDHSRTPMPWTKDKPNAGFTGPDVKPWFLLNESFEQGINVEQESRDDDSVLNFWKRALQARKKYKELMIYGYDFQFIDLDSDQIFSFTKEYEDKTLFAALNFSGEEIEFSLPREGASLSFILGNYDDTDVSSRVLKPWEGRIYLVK

Molecule: NS(=O)(=O)c1ccc(N/N=C/c2coc3ccccc3c2=O)cc1 [Compound 4d]
- inhibition type (α-glucosidase [1]; Lineweaver–Burk plot analysis): non-competitive mode

Molecule: O=c1c(-c2ccc(O)cc2)coc2cc(O)ccc12 [daidzein]
- inhibition type (α-glucosidase [1]): non-competitive action

Molecule: phaeochromycin H
- inhibitory rate against the HeLa cell line (HeLa cell line): 46.0%

Molecule: CC(=O)CCc1ccc(O)cc1 [Raspberry ketone]
- inhibition type (α-glucosidase [1]; binding reversibly and quickly): non-competitively

Molecule: Phaeochromycin A
- IC50 (MAPKAP kinase-2): 39 µM

Molecule: OC[C@@H]1[C@@H](O)[C@H](O)C[S@@+]1C[C@@H](O)[C@@H](O)[C@H](O)[C@@H](O)CO [Neoponkoranol]
- inhibition type [2]: strong competitive inhibition

Molecule: CCCc1cc(=O)c2c(Cc3cc(O)cc(=O)o3)cccc2o1 [Phaeochromycin C]
- IC50 (MAPKAP kinase-2): 130 µM

- effect on Km (α-glucosidase [3]): keeping the Km constant
- effect on Vmax (α-glucosidase [3]): decreasing the 1/Vmax
- inhibition type (α-glucosidase [3]): non-competitive inhibitor
Molecule: CCCc1cc(=O)c2c(CC(=O)CC(C)O)cccc2o1 (stereo not shown) [Compound 2, phaeochromycin D]

Molecule: Cc1nc2c(cc(O)c3c(=O)c4ccccc4oc32)o1 [5-hydroxy-2-methyl-6H-xantheno[4,3-d]oxazol-6-one]
- inhibition type (α-glucosidase [1]; kinetic analysis): competitive inhibitor

Molecule: O=C(OC[C@H]1O[C@@H](OC(=O)c2cc(O)c(O)c(OC(=O)c3cc(O)c(O)c(O)c3)c2)[C@H](OC(=O)c2cc(O)c(O)c(OC(=O)c3cc(O)c(O)c(O)c3)c2)[C@@H](OC(=O)c2cc(O)c(O)c(OC(=O)c3cc(O)c(O)c(O)c3)c2)[C@@H]1OC(=O)c1cc(O)c(O)c(OC(=O)c2cc(O)c(O)c(O)c2)c1)c1cc(O)c(O)c(OC(=O)c2cc(O)c(O)c(O)c2)c1 [Gallotannin]
- inhibition type (α-glucosidase [1]): parabolic mixed-type inhibition

- effect on Km (α-glucosidase [3]): Km decreases
- effect on Vmax (α-glucosidase [3]): decrease in Vmax
- inhibition type (α-glucosidase [3]): uncompetitive inhibitor
Molecule: CCCc1cc(=O)c2c(CC(=O)O)cccc2o1 [Compound 1, phaeochromycin E]

Molecule: O=c1c(-c2ccc(O)cc2)coc2cc(O)cc(O)c12 [genistein]
- inhibition type (α-glucosidase [1]): non-competitive action
